Assays:
Assay in all cases: relative viability (nuclei count vs DMSO), 5 days (fraction); higher = more cells survive
[1] = compound: COc1cc2nc(N3CCCN(C)CC3)nc(NC3CCN(Cc4ccccc4)CC3)c2cc1OC + C[C@]1(O)C[C@@H](c2nc(-c3ccc4ccc(-c5ccccc5)nc4c3)c3c(N)nccn32)C1 [Linsitinib] (partner 1 µM)
Method in brief: (§1)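 A single step with final 0.05% Triton X-100, 1% formaldehyde and 1 ug/ml Hoechst fixed the cells and stained nuclei 5 days after treatment. Lung cancer cell lines in 1536-well plates had been treated by pin tool the day after seeding with one drug alone or a fixed anchor-drug dose plus five library-drug doses (not always all listed) in √10 steps, and nuclei were counted on 4× images. Relative viability is the ratio of nuclei in treated wells to nuclei in vehicle wells, taken as the median of duplicate plates.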

[2] = compound: COc1cc2nc(N3CCCN(C)CC3)nc(NC3CCN(Cc4ccccc4)CC3)c2cc1OC + CS(=O)(=O)CCNCc1ccc(-c2ccc3ncnc(Nc4ccc(OCc5cccc(F)c5)c(Cl)c4)c3c2)o1 [Lapatinib] (partner 2 µM)
Method in brief: as §1

AZD6482 + Trametinib = compound: Cc1cc([C@@H](C)Nc2ccccc2C(=O)O)c2nc(N3CCOCC3)cc(=O)n2c1 [AZD6482] + CC(=O)Nc1cccc(-n2c(=O)n(C3CC3)c(=O)c3c(Nc4ccc(I)cc4F)n(C)c(=O)c(C)c32)c1 [Trametinib] (partner 0.02 µM)
Method in brief: as §1

AZD6482 + Vorinostat = compound: Cc1cc([C@@H](C)Nc2ccccc2C(=O)O)c2nc(N3CCOCC3)cc(=O)n2c1 [AZD6482] + O=C(CCCCCCC(=O)Nc1ccccc1)NO [Vorinostat] (partner 1 µM)
Method in brief: as §1

UMC-11
relative viability ([1]; first compound 0.2 µM): 1.03 | relative viability ([1]; first compound 0.6325 µM): 1.03 | relative viability ([1]; first compound 2 µM): 1.05 | relative viability ([1]; first compound 6.325 µM): 1.04 | relative viability ([2]; first compound 0.2 µM): 0.93 | relative viability ([2]; first compound 0.6325 µM): 1.12 | relative viability ([2]; first compound 2 µM): 1.03 | relative viability ([2]; first compound 6.325 µM): 0.656 | relative viability (AZD6482 + Trametinib; first compound 0.08 µM): 0.681 | relative viability (AZD6482 + Trametinib; first compound 0.253 µM): 0.659 | relative viability (AZD6482 + Trametinib; first compound 0.8 µM): 0.705 | relative viability (AZD6482 + Trametinib; first compound 2.53 µM): 0.571 | relative viability (AZD6482 + Trametinib; first compound 8 µM): 0.9 | relative viability (AZD6482 + Vorinostat; first compound 0.08 µM): 0.326 | relative viability (AZD6482 + Vorinostat; first compound 0.253 µM): 0.347 | relative viability (AZD6482 + Vorinostat; first compound 0.8 µM): 0.384 | relative viability (AZD6482 + Vorinostat; first compound 2.53 µM): 0.341 | relative viability (AZD6482 + Vorinostat; first compound 8 µM): 0.331

From the supplement of paper PMC10307832
